Results reported in patent US10154992B2, “Compounds and methods for treating HIV infection” (THE REGENTS OF THE UNIVERSITY OF CALIFORNIA, priority 2016, dated 2018).
≈ marks a conversion by molar mass, not a printed value. Like-named read-outs stand apart in the source and are kept apart here.

Key:
[1] = MTT cell viability in parallel with the U1 assay; assay type: cell-based; conditions: human, U1 cells, read-out: U1 TC50
Method: (§1) U1 activation assay. U1 cells obtained from the AIDS Research and Reference Reagent Program were maintained under standard culture conditions in RPMI 1640 supplemented with 10% fetal bovine serum (heat inactivated), 2 mM L-glutamine, 100U/mL penicillin and 100 μg/mL streptomycin. U1 cells contain an integrated copy of a phorbol ester inducible HIV-1 provirus and addition of phytohemagglutinin (PHA) to the cell culture was used to induce virus production. On the day of the assay, the U1 cells were activated with PHA and 250,000 cells were plated in 96-well plates. Test compounds were diluted in media and applied to the cells at final concentrations from 1 to 10,000 nM. Cultures were incubated for 3 days and supernatants harvested. Cell-free virus production was measured by p24 ELISA on culture supernatant. Compound toxicity was determined by MTT cell-viability assay in parallel assays.

HIV-1 isolate NL4-3 = assay: Virus spreading / replication assay in Jurkat cells, p24 ELISA; assay type: cell-based
Method: (§2) Virus spreading assay. Jurkat (E6-1) cells (NIH AIDS Reagent Program) were cultured in RPMI media supplemented with 25 mM HEPES pH 7.4, 10% heat-inactivated fetal calf serum (Hyclone, Waltham Mass.), and 1% penicillin/streptomycin. 2.5×10^5 Jurkat cells were inoculated with 250 pg p24 in 250 μl media in a 96-well flat bottom polystyrene cell culture microplate. Input virus was removed after 18 hours via washing cells phosphate-buffered saline (PBS). Cells were resuspended in 250 μl of media containing compounds at the described concentrations. Cells were incubated at 37° C., 5% CO2 and supernatant samples were removed every 48 hours and replaced with fresh media containing the compounds. Viral replication was quantified using ELISA to quantify p24 viral capsid protein in the culture supernatant. Mouse monoclonal and rabbit polyclonal α-p24 antibodies used in the ELISA were obtained from the NIH AIDS Reagent Program. Toxicity was monitored using the MTT cell viability assay (Mosmann, T. (1983). J Immunol Methods 65, 55-63).

Jurkat cells = assay: MTT cell viability in Jurkat replication assay; assay type: cell-based; conditions: Table 5; read-out: Jurkat TC50
Method: as §2

[2] = MTT cell viability run in parallel with the Tat-hybrid assay; assay type: cell-based; conditions: human, Tat-hybrid reporter cell lines (HeLa); for CC50 at 48 h: Table 5, read-out: Tat hybrid TC50; for EC50 at 48 h: Table 6, second 'EC50' entry of the cell, values D/E
Method: (§3) Cells were counted and plated into white 384-well or 96-well cell-culture treated assay plates and compounds were added. After 48 hours, the cells were prepared for luminescence assays that were performed on a plate reader (Tecan Evolution or MD Analyst). The cytotoxicity of each compound was determined in parallel via MTT-based cell viability assays.
as §3, with “Tat hybrid reporter assay. […] Previously characterized thienopyridines and diaminoacridine were used as controls. Cells” for “Cells”, “384-well” for “384-well or 96-well”, “lumincescence” for “luminescence”, “assays. […]” for “assays.”

[3] = system: HIV-1 provirus in U1 cells; assay: U1 activation (latency) assay, p24 ELISA; assay type: cell-based
Method: as §1

[4] = MTT cell viability in Jurkat replication assay; assay type: cell-based; conditions: human, Jurkat (E6-1) cells, pH 7.4
Method: as §2

Caco-2 permeability = assay type: in vitro ADME; conditions: human
Text: (§4) We next evaluated analogs 2b, 2f, 4a, and 4e in a panel of standard in vitro ADME assays to assess drug-like properties and the potential for efficacy in animals.

[5] = Aqueous solubility pH 7.4; assay type: physicochemical; conditions: aqueous solution, pH 7.4, pH 7.4, aqueous buffer
Text: as §4

[6] = Human liver microsome stability; assay type: in vitro ADME; conditions: human liver microsomes; read-out: HLM T1/2
Text: The more lipophilic analogs 4a and 4e also appear more prone to oxidative metabolism in the presence of human liver microsomes. This is perhaps unsurprising given the presence of methoxyphenyl (4a) and benzylic methylene (4e) functions, both potential sites of oxidative metabolism.

[7] = system: Tat-hybrid reporter cell lines (HeLa); assay: MTT cell viability run in parallel with the Tat-hybrid assay; assay type: cell-based; conditions: Table 6; at 50,000 nM
Method: as §3
as §3, with “Tat hybrid reporter assay. […] Previously characterized thienopyridines and diaminoacridine were used as controls. Cells” for “Cells”, “384-well” for “384-well or 96-well”, “lumincescence” for “luminescence”, “assays. […]” for “assays.”

[8] = Human immunodeficiency virus 1, NL43, Jurkat, Table 5, read-out: Jurkat replication IC50
[9] = Human immunodeficiency virus 1, Table 5, read-out: U1 IC50
[10] = Human immunodeficiency virus 1, read-out: U1 cell IC50 (nM)
[11] = Human immunodeficiency virus 1, Table 6, read-out: U1 IC50

SMILES: NC(=O)c1cc2c(-c3ccc4c(c3)CCO4)cncc2s1 [drawing 128]
- CC50 at 3 days ([1]; Table 5): < 40 µM
- IC50 (HIV-1 isolate NL4-3; [8]): < 0.1 µM
- CC50 (Jurkat cells): < 40 µM
- CC50 at 48 h [2]: > 40 µM
- IC50 [3, 9]: < 100 nM

SMILES: CC(=O)N1CCN(c2cncc3sc(C(N)=O)c(N)c23)CC1 [drawing 144]
- CC50 at 3 days ([1]; Table 5): > 40 µM
- IC50 (HIV-1 isolate NL4-3; [8]): > 0.5 µM
- CC50 ([4]; Table 5, read-out: Jurkat TC50): > 40 µM
- CC50 at 48 h [2]: > 40 µM
- IC50 [3, 9]: 100 to 500 nM

SMILES: CC(=O)N1CCN(c2cncc3sc(C(N)=O)c(N)c23)CC1 [Compound 2f, 4-(4-acetylpiperazin-1-yl)-3-aminothieno[2,3-c]pyridine-2-carboxamide]
- Papp (Caco-2 permeability): 9.7 ×10⁻⁶ cm/s
- IC50 (HIV-1 isolate NL4-3; Human immunodeficiency virus 1, NL43, Jurkat, Table 1, read-out: Jurkat HIV-1 replication assay): > 0.5 µM
- solubility [5]: 258 µM (≈ 82.4 µg/mL)
- half-life [6]: > 60 min
- IC50 [3, 10]: 100 to 500 nM

SMILES: NC(=O)c1sc2cncc(N3CCCCC3)c2c1N [Compound 2b, 3-amino-4-(piperidin-1-yl)thieno[2,3-c]pyridine-2-carboxamide]
- Papp (Caco-2 permeability): 50.5 ×10⁻⁶ cm/s
- IC50 (HIV-1 isolate NL4-3; Human immunodeficiency virus 1, NL43, Jurkat, Table 2, NL4-3, read-out: Jurkat HIV-1 replication assay): < 0.1 µM
- IC50 (HIV-1 isolate NL4-3; Human immunodeficiency virus 1, NL43, Jurkat, read-out: IC50 in the HIV replication assay): 0.0768 µM
- IC50 (HIV-1 isolate NL4-3; Table 1, read-out: Jurkat HIV-1 replication assay): < 0.1 µM
- solubility [5]: 34 µM (≈ 9.4 µg/mL)
- CC50 ([4]; Jurkat infectivity assay, read-out: TC50 (MTT cell viability)): > 40 µM
- half-life [6]: 28 min
- IC50 [3, 10]: < 100 nM
- IC50 ([3]; Human immunodeficiency virus 1, read-out: IC50 in the U1 assay): 28 nM

SMILES: COCc1cc(C)nc2sc(C(N)=O)c(N)c12
- CC50 at 3 days ([1]; Table 6): > 40 µM
- Tat hybrid cell viability at 50,000 nM [7]: X (X = >60%)
- EC50 at 48 h [2]: > 40 µM
- IC50 [3, 11]: > 500 nM

SMILES: NC(=O)c1sc2nccc(Nc3ccccc3)c2c1N
- CC50 at 3 days ([1]; Table 6): > 40 µM
- Tat hybrid cell viability at 50,000 nM [7]: Y (Y = 30-60%)
- EC50 at 48 h [2]: > 40 µM
- IC50 [3, 11]: 100 to 500 nM

SMILES: CCc1c(C)nc2sc(C(N)=O)c(N)c2c1C
- CC50 at 3 days ([1]; Table 6): > 40 µM
- Tat hybrid cell viability at 50,000 nM [7]: Y (Y = 30-60%)
- EC50 at 48 h [2]: > 40 µM
- IC50 [3, 11]: > 500 nM

SMILES: COc1ccc(-c2cncc3sc(C(N)=O)cc23)cc1 [drawing 129]
- CC50 at 3 days ([1]; Table 5): < 40 µM
- IC50 (HIV-1 isolate NL4-3; [8]): < 0.1 µM
- CC50 ([4]; Table 5, read-out: Jurkat TC50): < 40 µM
- CC50 at 48 h [2]: < 40 µM
- IC50 [3, 9]: < 100 nM

SMILES: NC(=O)c1sc2nc3c(c(-c4ccco4)c2c1N)CCCC3
- CC50 at 3 days ([1]; Table 6): < 40 µM
- Tat hybrid cell viability at 50,000 nM [7]: X (X = >60%)
- EC50 at 48 h [2]: > 40 µM
- IC50 [3, 11]: > 500 nM

SMILES: Cc1cc(C)c2c(N)c(C(N)=O)sc2n1
- CC50 at 3 days ([1]; Table 6): > 40 µM
- Tat hybrid cell viability at 50,000 nM [7]: Z (Z = <30%)
- EC50 at 48 h [2]: > 40 µM
- IC50 [3, 11]: > 500 nM

SMILES: N#Cc1ccccc1-c1cncc2sc(C(N)=O)cc12 [drawing 164]
- CC50 at 3 days ([1]; Table 5): > 40 µM
- CC50 at 48 h [2]: > 40 µM
- IC50 [3, 9]: > 500 nM

SMILES: NC(=O)c1cc2c(-c3cccc(-c4ccccc4)c3)cncc2s1 [drawing 145]
- CC50 at 3 days ([1]; Table 5): < 40 µM
- CC50 at 48 h [2]: > 40 µM
- IC50 [3, 9]: 100 to 500 nM

SMILES: NC(=O)c1sc2cncc(N3CCc4ccccc4C3)c2c1N
- CC50 at 3 days ([1]; Table 5): < 40 µM
- CC50 at 48 h [2]: < 40 µM
- IC50 [3, 9]: < 100 nM

SMILES: NC(=O)c1sc2cncc(N3CCCCC3)c2c1N [drawing 134]
- CC50 at 3 days ([1]; Table 5): < 40 µM
- IC50 (HIV-1 isolate NL4-3; [8]): < 0.1 µM
- CC50 (Jurkat cells): > 40 µM
- CC50 at 48 h [2]: > 40 µM
- IC50 [3, 9]: < 100 nM

SMILES: CCOc1ncccc1-c1cncc2sc(C(N)=O)c(N)c12
- CC50 at 3 days ([1]; Table 5): > 40 µM
- CC50 at 48 h [2]: > 40 µM
- IC50 [3, 9]: 100 to 500 nM

SMILES: NC(=O)c1sc2cncc(N3CCN(C=O)CC3)c2c1N
- CC50 at 3 days ([1]; Table 5): > 40 µM
- CC50 at 48 h [2]: < 40 µM
- IC50 [3, 9]: > 500 nM

SMILES: NC(=O)c1cc2c(-c3ccc4ccccc4c3)cncc2s1
- CC50 at 3 days ([1]; Table 5): < 40 µM
- IC50 (HIV-1 isolate NL4-3; [8]): < 0.1 µM
- CC50 ([4]; Table 5, read-out: Jurkat TC50): < 40 µM
- CC50 at 48 h [2]: > 40 µM
- IC50 [3, 9]: < 100 nM

SMILES: NC(=O)c1sc2cncc(-c3ccc4cc[nH]c4c3)c2c1N
- CC50 at 3 days ([1]; Table 5): > 40 µM
- CC50 at 48 h [2]: > 40 µM
- IC50 [3, 9]: 100 to 500 nM

SMILES: NC(=O)c1cc2c(-c3cnc4ccccc4c3)cncc2s1
- CC50 at 3 days ([1]; Table 5): > 40 µM
- IC50 (HIV-1 isolate NL4-3; [8]): < 0.1 µM
- CC50 ([4]; Table 5, read-out: Jurkat TC50): > 40 µM
- CC50 at 48 h [2]: > 40 µM
- IC50 [3, 9]: < 100 nM

SMILES: NC(=O)c1cc2c(-c3ccccc3OC(F)(F)F)cncc2s1
- CC50 at 3 days ([1]; Table 5): < 40 µM
- CC50 at 48 h [2]: > 40 µM
- IC50 [3, 9]: > 500 nM

SMILES: CN(C)c1cncc2sc(C(N)=O)c(N)c12
- CC50 at 3 days ([1]; Table 5): > 40 µM
- CC50 at 48 h [2]: < 40 µM
- IC50 [3, 9]: 100 to 500 nM
